Data set [1] deals with mice. Put plainly: Tail bleeding time in mice. In kind it is in vivo. The conditions noted are these: for Bleeding Time in mice: Table 2 summary; for prolongation in bleeding time: 30 μM/kg, 1 hr p.o. dosing. On the procedure:
Bleeding time in mice was evaluated by the method of Dejana et al, (Dejana E, Callioni A, Quintana A, Gaetano G. Bleeding time in laboratory animals. II—A comparison of different assay conditions in rats. […] The time elapsed from the tip incision to the stoppage of bleeding was determined as the bleeding time. The preferred compounds, aspirin (30 mg/kg) or vehicle was given orally 60 min prior to the tail incision in a group of 5 mice each.

Data set [2] has as its system hamster whole blood (Collagen 2.5 μg/ml). Nature of the data set: Whole blood aggregation in hyperlipidemic hamsters (ex vivo), collagen induced. The note with it: Table 2 summary.
Data set [3] concerns the target T1, GPVI (Homo sapiens, UniProt Q9HCN6).
T1 construct: Washed platelets, suspended in the Tyrode's-HEPES buffer; endogenous in cells; host or cells: washed human platelets from healthy volunteers
T1 sequence (Q9HCN6 21-339): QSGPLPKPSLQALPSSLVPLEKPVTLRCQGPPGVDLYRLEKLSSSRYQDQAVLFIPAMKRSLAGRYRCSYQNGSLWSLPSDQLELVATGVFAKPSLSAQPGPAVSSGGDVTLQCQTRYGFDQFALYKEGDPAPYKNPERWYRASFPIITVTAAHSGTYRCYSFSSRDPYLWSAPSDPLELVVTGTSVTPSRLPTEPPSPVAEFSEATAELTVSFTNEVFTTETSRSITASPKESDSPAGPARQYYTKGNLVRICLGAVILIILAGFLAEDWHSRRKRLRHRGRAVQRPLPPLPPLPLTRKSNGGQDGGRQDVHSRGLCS
T1 sequence (P30273 19-86 partner): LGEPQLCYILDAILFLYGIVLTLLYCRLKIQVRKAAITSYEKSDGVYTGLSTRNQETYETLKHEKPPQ
Nature of the data set: GPVI-mediated platelet adhesion assay on fibrillar collagen (human, in vitro). The conditions noted are these: for Platelet adhesion: Table 2 summary, collagen type not stated, effective concentration in brackets: mixture 100 μM, compound 6 30 & 100 μM, compound 7 100 μM; for human platelet adhesion on fibrillar collagen (GP VI mediated): in vitro, washed platelets, divalent cation-free. It is filed as cell-based. Here is the method: (§1) Fresh blood was drawn by venipuncture from consenting healthy human volunteers in citrate-phosphate-dextrose. Platelet-rich plasma (PRP) was obtained by centrifugation at 180 g for 20 minutes at room temperature (Beckman TJ6. USA). […] Platelets were then washed twice with Buffer (20 mMHEPES, 138 mM NaCl, 2.9 mMKCl, 1 mMMgCl2, 0.36 mMNaH2PO4, 1 mM EGTA, 4.77 mM trisodium citrate, and 2.35 mM citric acid, 5 mM glucose and Apyrase 1 U/ml, pH 6.5) containing 0.1% bovine serum albumin (BSA) and finally resuspended in the HEPES-buffered Tyrode solution (pH 7.4), to give a concentration of 2×10^8 cells/mL (Jandrot-Perrus M. Lagrue A H, Okuma M, and Boni C Adhesion and Activation of Human Platelets Induced by Convulxin Involve Glycoprotein VI and Integrin α2β1 J. Biol. Chem. 1997; 272: 27035-27041).
Integrin α2β1 binding on soluble collagen depends on the presence of Mg2+/Ca^2+ (Onley D. J., Knight C. G., Tuckwell D. S., Barnes M. J., and Farndale R. W. Micromolar Ca2+ concentrations are essential for Mg2+-dependent binding of collagen by the integrin α2β1 in human platelets. J. Biol. Chem, 2000; 275: 24560-24564.) while GPVI mediates adhesion over fibrillar collagen in absence of divalent ions (Nieswandt B., Brakebusch C, Bergmeier W, Schulte V, Bouvard D, Nejad R M, Lindhout T, Heemskerk J W M, Zirngibl H and Fassler R. Glycoprotein VI but not α2b1 integrin is essential for platelet interaction with collagen. The EMBO Journal, 2001; 20:2120-2130) and therefore the adhesion assays were performed in the presence or absence of these divalent cations. Ninety-six well micro titer plates were coated with insoluble equine tendon fibrillar type I collagen or soluble rat tail type I (non-fibrillar) collagen, maintained in acetate buffer (pH 4.5), (Nakamura T., Jamieson G. A., Okuma M., Kambayashi J., and Tendon N. N. Platelet Adhesion to Native Type I Collagen Fibrils: role of gpVI in divalent cation-dependent and -independent adhesion and thromboxane A2 generation. J. Biol. Chem 1998; 273: 4338-[…], Tendon N N, Ockenhouse C F, Greco N J, Jamieson G A. Adhesive functions of platelet lacking GPIV (CD36). Blood 1991: 78: 2809-13). The unoccupied protein binding sites on the wells were blocked with 5 mg/ml BSA at room temperature for 1 hour, and then rinsed once in PBS. Washed platelets, suspended in the Tyrode's-HEPES buffer (136.7 mM NaCl, 13.8 mM NaHCO3, 0.36 mM NaH2PO4.H2O, 2.6 mM KCl, 1.0 mM MgCl2.6H2O, 5.5 mM glucose, 0.5% BSA, pH 7.4) at 1×10^8 cells/mL were pre-incubated with compounds for 30 min at 37° C. and added to the wells (10^7/well) for 1 h at room temperature. Divalent cation-free adhesion buffer was made by replacing Mg^2+ (1 mM) in the Tyrode-HEPES buffer with 50 μM EDTA (Yoshida S., Sudo T., Niimi M., Tao L., Sun B., Kambayashi J., Watanabe H., Luo E., and Matsuoka H. Inhibition of collagen-induced platelet aggregation by anopheline antiplatelet protein, a saliva protein from a malaria vector mosquito. Blood 2007; 111: 2007-201). After three washes in Tyrode's buffer, the number of adherent platelets was evaluated colorimetrically (as described by Bellavite P., Andrioli G., Gizzo P., Arigliano P., Chirumbolo S., Manzato F, Santonastaso C. A colorimetric method for the measurement of platelet adhesion in microtifer plates. Anal. Biochem. 1994; 216:444-450. Briefly, 150 μl of a 0.1 M citrate buffer (pH 5.4), containing 5 mM p-nitrophenyl phosphate and 0.1% TritonX-100 was added to the wells after washing. After incubation for 60 min at 25° C. in the absence of ambient light, colour was developed by the addition of 100 μl of 2N NaOH and the absorbance at 405 nm was read using a microplate reader (Powerware XS, Biotek, USA).

Data set [4] can be described thus: in vivo. It is filed as in vivo, rabbits. The note with it: for AUC / Cmax / MRT / Tmax: 20 mg/kg. On the procedure:
In-vivo pharmacokinetic parameters were generated in male NZ rabbits at a dose of 20 mg/kg by oral route of administration. The blood samples were drawn at 0.25, 0.5, 0.75, 1, 1.5, 2, 4, 6, 8, 10, 12, 18 and 24 hr post dose, processed and analyzed by Liquid Chromatography-Mass Spectrometry (LC-MS). Plasma concentration at different time points were plotted to give Plasma Concentration Time Profile and the data was fitted non-compartmentally using Win NonLin 5.1 version software and the estimates of pharmacokinetic parameters were derived with SD mean values. Maximum plasma concentration (Cmax), time to achieve maximum plasma concentration (tmax).

The target in data set [5] is T2, Integrin α2β1 (Homo sapiens, UniProt P05556+P17301).
T2 construct: Washed platelets, suspended in the Tyrode's-HEPES buffer; endogenous in cells; host or cells: washed human platelets from healthy volunteers
Put plainly: α2β1-mediated platelet adhesion assay on soluble collagen (human, in vitro). In kind it is cell-based. The note with it: washed platelets, with Mg2+. Here is the method: as §1
Integrin α2β1 binding on soluble collagen depends on the presence of Mg2+/Ca^2+ (Onley D. J., Knight C. G., Tuckwell D. S., Barnes M. J., and Farndale R. W. Micromolar Ca2+ concentrations are essential for Mg2+-dependent binding of collagen by the integrin α2β1 in human platelets. J. Biol. Chem, 2000; 275: 24560-24564.) while GPVI mediates adhesion over fibrillar collagen in absence of divalent ions (Nieswandt B., Brakebusch C, Bergmeier W, Schulte V, Bouvard D, Nejad R M, Lindhout T, Heemskerk J W M, Zirngibl H and Fassler R. Glycoprotein VI but not α2b1 integrin is essential for platelet interaction with collagen. The EMBO Journal, 2001; 20:2120-2130) and therefore the adhesion assays were performed in the presence or absence of these divalent cations. […]

Setting [6] is: male, NZ, rabbit, in vivo, as stated in the summary text, read-out: tmax.

Several values for one entry are separate records, joined by “and”; a condition that tells them apart may be missing. Equal values may be shown once. Read-outs that look alike come from different tables or passages of the source.

T2 sequence (P17301 30-1181): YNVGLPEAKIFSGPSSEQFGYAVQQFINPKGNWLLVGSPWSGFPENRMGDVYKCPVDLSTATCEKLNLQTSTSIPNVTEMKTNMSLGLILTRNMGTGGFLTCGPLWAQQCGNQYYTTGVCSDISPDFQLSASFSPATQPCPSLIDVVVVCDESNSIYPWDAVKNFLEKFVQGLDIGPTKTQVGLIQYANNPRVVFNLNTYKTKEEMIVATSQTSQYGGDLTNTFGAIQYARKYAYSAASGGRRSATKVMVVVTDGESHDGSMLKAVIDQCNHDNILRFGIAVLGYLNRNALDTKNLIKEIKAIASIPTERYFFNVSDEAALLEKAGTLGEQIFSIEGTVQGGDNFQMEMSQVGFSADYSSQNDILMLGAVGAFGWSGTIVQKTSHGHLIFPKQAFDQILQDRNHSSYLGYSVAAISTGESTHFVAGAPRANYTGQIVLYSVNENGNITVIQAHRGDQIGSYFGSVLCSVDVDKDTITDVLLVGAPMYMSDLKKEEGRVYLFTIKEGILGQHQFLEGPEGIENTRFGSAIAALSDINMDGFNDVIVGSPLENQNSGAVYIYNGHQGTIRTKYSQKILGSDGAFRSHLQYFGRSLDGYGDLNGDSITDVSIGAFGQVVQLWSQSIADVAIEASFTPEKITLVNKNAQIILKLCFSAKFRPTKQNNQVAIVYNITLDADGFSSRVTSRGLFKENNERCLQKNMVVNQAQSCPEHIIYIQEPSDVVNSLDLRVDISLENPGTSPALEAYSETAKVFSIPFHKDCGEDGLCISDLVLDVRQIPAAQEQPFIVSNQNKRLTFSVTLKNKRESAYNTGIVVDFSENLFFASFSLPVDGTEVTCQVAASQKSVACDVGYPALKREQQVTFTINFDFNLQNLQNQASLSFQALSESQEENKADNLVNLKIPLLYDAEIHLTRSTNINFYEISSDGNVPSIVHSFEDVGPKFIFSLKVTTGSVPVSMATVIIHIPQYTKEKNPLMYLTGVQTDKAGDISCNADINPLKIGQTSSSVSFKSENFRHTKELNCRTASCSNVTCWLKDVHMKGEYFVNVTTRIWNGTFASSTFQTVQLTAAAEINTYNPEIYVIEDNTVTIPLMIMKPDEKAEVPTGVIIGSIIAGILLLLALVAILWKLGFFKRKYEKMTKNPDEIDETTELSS
T2 sequence (P05556 21-798): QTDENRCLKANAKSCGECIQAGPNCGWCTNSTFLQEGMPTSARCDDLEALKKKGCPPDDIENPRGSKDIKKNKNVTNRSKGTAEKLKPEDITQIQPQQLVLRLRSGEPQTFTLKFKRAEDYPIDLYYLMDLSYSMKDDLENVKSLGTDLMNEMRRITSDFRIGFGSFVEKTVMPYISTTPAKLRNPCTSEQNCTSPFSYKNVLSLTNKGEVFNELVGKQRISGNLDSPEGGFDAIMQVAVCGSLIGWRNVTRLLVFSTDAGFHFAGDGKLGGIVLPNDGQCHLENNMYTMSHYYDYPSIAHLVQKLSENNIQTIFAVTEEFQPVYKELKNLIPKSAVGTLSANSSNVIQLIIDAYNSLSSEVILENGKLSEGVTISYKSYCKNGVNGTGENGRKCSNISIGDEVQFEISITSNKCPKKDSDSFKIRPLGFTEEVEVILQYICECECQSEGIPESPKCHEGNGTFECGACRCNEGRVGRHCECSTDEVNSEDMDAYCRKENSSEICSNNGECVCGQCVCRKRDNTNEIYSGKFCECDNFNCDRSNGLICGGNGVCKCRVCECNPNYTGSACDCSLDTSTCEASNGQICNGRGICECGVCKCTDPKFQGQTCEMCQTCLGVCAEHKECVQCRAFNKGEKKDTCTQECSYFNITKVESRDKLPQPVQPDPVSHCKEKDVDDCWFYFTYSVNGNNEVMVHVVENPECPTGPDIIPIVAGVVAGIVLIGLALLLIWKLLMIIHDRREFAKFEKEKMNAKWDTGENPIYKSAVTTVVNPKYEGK

Turning to “1-(4-methylphenylmethyl)-5-oxo-{N-[(3-t-butoxycarbonyl-aminomethyl)]-piperidin-1-yl}-pyrrolidine-2-carboxamides [Compound 1]”, in data set [1], the “Bleeding Time in mice” value is 2 fold. In addition, the “Whole blood aggregation in hyperlipidemic hamsters” value (“Whole blood aggregation” below) in data set [2] is “Effective”. In data set [3], the Platelet adhesion entry is listed as “Effective”.

Consider `Cc1ccc(CN2C(=O)CC[C@H]2C(=O)N2CCCC(CNC(=O)OC(C)(C)C)C2)cc1` (stereo partly drawn) [Compound 1, 1-(4-methylphenylmethyl)-5-oxo-{N-[(3-t-butoxycarbonyl-aminomethyl)]-piperidin-1-yl}-pyrrolidine-2-carboxamides], for which, in data set [4] (male NZ rabbits, oral), the AUC is 6524.15 ng·h/mL, the Cmax stood at 947.02 ± 237.4 ng/mL, the MRT is on record as 16.20 h and the Tmax amounted to 0.68 h. The “human platelet adhesion on soluble collagen (GP Ia IIa / α2β1 mediated)” value in data set [5] was “partially inhibited”. The “prolongation in bleeding time” value in data set [1] is recorded as “approximately 1.5 fold”. Also, in data set [3], the “human platelet adhesion on fibrillar collagen (GP VI mediated)” value (“human platelet adhesion … (GP VI mediated)” for short) was “partially inhibited”.

With `Cc1ccc(CN2C(=O)CC[C@H]2C(=O)N2CCC[C@@H](CNC(=O)OC(C)(C)C)C2)cc1` [Compound 6], in data set [4] (as stated in the summary text), the prolonged systemic exposure entry was “more than 24 hrs”. For the same compound, in data set [4] (male NZ rabbits, oral), the AUC was 874.8 ng·h/mL, the Cmax turned out to be 149.49 ± 53.12 ng/mL, the mean residence time MRT turned out to be 5.25 h and the Tmax is reported as 0.75 h. For the same compound, in data set [4] (setting [6]), the time of peak concentration (Tmax) stood at 0.75 ± 0.144 h. In data set [5], the “human platelet adhesion on soluble collagen (GP Ia IIa / α2β1 mediated)” value is “partially inhibited”. In data set [1], the “prolongation in bleeding time” value was “approximately 1.5 fold” and the “Bleeding Time in mice” value is 1.5 fold. In addition, in data set [2], the “Whole blood aggregation” value was “Effective”. In data set [3], the Platelet adhesion entry is listed as “Effective (30” and the “human platelet adhesion … (GP VI mediated)” value is on record as “partially inhibited”.

On to `Cc1ccc(CN2C(=O)CC[C@H]2C(=O)N2CCC[C@H](CNC(=O)OC(C)(C)C)C2)cc1` [Compound 7, (2S)-1-(4-methylphenylmethyl)-5-oxo-(3R)-{N-[(3-t-butoxycarbonyl-aminomethyl)]-piperidin-1-yl}-pyrrolidine-2-carboxamide], for which, in data set [4] (male NZ rabbits, oral), the exposure (AUC) amounted to 1112.81 ng·h/mL; the Cmax was 112.81 ± 169.77 ng/mL and 112.40 ng/mL; the MRT is 16.20 h; the Tmax is reported as 8.67 h. For the same compound, in data set [4] (setting [6]), the Tmax turned out to be 8.67 ± 0.66 h. For the same compound, the “human platelet adhesion on soluble collagen (GP Ia IIa / α2β1 mediated)” value in data set [5] is “partially inhibited”. In addition, in data set [1], the “prolongation in bleeding time” value is on record as “approximately 1.5 fold” and the “Bleeding Time in mice” value came out at 1.5 fold. Further, in data set [2], the “Whole blood aggregation” value was “No effect”. For the same compound, in data set [3], the Platelet adhesion result is listed as “Effective” and the “human platelet adhesion … (GP VI mediated)” value is listed as “partially inhibited”.
